Results on twelve molecules are retold here after patent US11787816B2, “Chlorin compound, and preparation and use thereof” (Southwest Jiaotong University, priority 2021, dated 2023).

Series [1] concerns murine mammary carcinoma 4T1 cells. The series can be described thus: Photosensitizer-mediated PDT, in vitro proliferation (MTT), 4T1. It is filed as cell-based. The following applies: Table 8a, 10 μg/mL; for viability at 10 µg/mL: Mus musculus, light or radiation study, 8 J/cm^2, read-out: cell viability (%), +8 J/cm^2; for viability at 10 µg/mL / cell viability (%), +8 J/cm^2: 660 nm. The protocol:
(§1) Several kinds of tumor cells (human cervical cancer Hela cells, human hepatocellular carcinoma huh-7 cells and murine mammary carcinoma 4T1 cells) cultured in vitro from a variety of tissues were taken as cell models, so as to investigate the photodynamic effects mediated by different doses of CEFN, CEFO, Ce6 and HPPH on the three different tumor cells (n=3). The specific experimental procedures were carried out as follows.
(§2) Cells in the logarithmic growth phase were harvested and seeded in a 24-well plate. After growing to a confluence of 70-80%, the cells were randomly divided into a control group (free of drug and light irradiation), a drug group and a photodynamic group. The CEFN, CEFO, Ce6 and HPPH were added respectively in dark, and for each drug, four final concentrations 1, 2, 5, and 10 μg/mL were set with 3 replicates for each group. After the co-incubation, the groups were treated individually. Regarding the photodynamic group, the light irradiation was performed at a wavelength of 660 nm and three different light intensities, i.e., 2, 4 and 8 J/cm^2. After that, each group was digested, and were inoculated into a 96-well plate at 100 μL per well with 4 replicates for each treatment. 24 hours later, the 96-well plate was subjected to MTT assay as follows. Each well was added with 20 μL of MTT (3-4,5-dimethylthiazol-2,5-diphenyltetrazolium bromide) solution in the dark and incubated for 4 hours. The supernatant was discarded, and the residue was dissolved with 150 μL of dimethyl sulfoxide for 15 min. After that, the 96-well plate was measured by a microplate reader for the absorbance (OD value). The relative cell viability was calculated as follows: relative cell viability=OD value of experimental group/OD value of control group*100%.
(§3) In this experiment, photodynamic effect mediated by the compounds (except CEFO and CEFN) in different Examples of this disclosure on the murine mammary carcinoma 4T1 cells was investigated. The experimental procedures are carried out as follows. Cells in the logarithmic growth phase were harvested and seeded in a 24-well plate. After growing to a confluence of 70-80%, the cells were randomly divided into multiple photodynamic groups and multiple no-light control groups. The compounds (as shown in Table 8a) with a final concentration of 10 μg/mL were added to each group respectively in dark with 3 replicates for each group, so as to co-incubate the cells with the drug. Regarding the multiple photodynamic groups, the light irradiation was performed at a wavelength of 660 nm and the light intensity of 8 J/cm^2. After that, each group was digested, and were inoculated into a 96-well plate at 100 μL per well with 4 replicates for light treatment and no light treatment. 24 hours later, the 96-well plate was measured by MTT assay as follows. Each well was added with 20 μL of MTT (3-4,5-dimethylthiazol-2,5-diphenyltetrazolium bromide) solution in the dark and incubated for 4 hours. The supernatant was discarded, and the residue was dissolved with 150 μL of dimethyl sulfoxide for 15 min. After that, the 96-well plate was measured by a microplate reader for the absorbance (OD value). The relative cell viability of the murine mammary carcinoma 4T1 cells was calculated as follows according to the measured absorbance (OD value) in each group: relative cell viability=OD value of experimental group/OD value of control group*100%.

Assay in series [2]: as above
It is filed as cell-based, murine. The following applies: mouse, 4T1 cells, Table 8a, 10 μg/mL, no light, read-out: cell viability (%), No light. The protocol: as §1, §2, §3

Turning to `CCCCCCCCCCCCNCc1c(C)c2cc3nc(c(C)c4[nH]c(cc5nc(cc1[nH]2)C(C)=C5CC)c(C)c4C(=O)O)[C@@H](CCC(=O)O)[C@@H]3C` [Example 20], the viability at 10 µg/mL in series [1] was 6 ± 3%. Further, the viability at 24 h, 10 μg/mL in series [2] turned out to be 104 ± 1%.
Turning to `CCCCCCCCCCCOCc1c(C)c2cc3nc(c(C)c4[nH]c(cc5nc(cc1[nH]2)C(C)=C5CC)c(C)c4C(=O)O)[C@@H](CCC(=O)O)[C@@H]3C` [Example 6], in series [1], the “cell viability (%), +8 J/cm^2” value stood at 4 ± 3% and the “cell viability (%), No light” value amounted to 102 ± 2%.
Take `CCCCCNCc1c(C)c2cc3nc(c(C)c4[nH]c(cc5nc(cc1[nH]2)C(C)=C5CC)c(C)c4C(=O)O)[C@@H](CCC(=O)O)[C@@H]3C` [Example 26]: the viability at 10 µg/mL in series [1] was determined as 6 ± 5%. Moreover, the viability at 24 h, 10 μg/mL in series [2] was 102 ± 1%.
For `CCCCCCOCc1c(C)c2cc3nc(c(C)c4[nH]c(cc5nc(cc1[nH]2)C(C)=C5CC)c(C)c4C(=O)O)C(CCC(=O)O)C3C` (stereo not drawn) [Example 1, 3-hexyloxymethyl-3-devinyl-chlorin e4], in series [1], the “cell viability (%), +8 J/cm^2” value is given as 2 ± 5% and the “cell viability (%), No light” value amounted to 103 ± 1%.
For `CCCCCCCCNCc1c(C)c2cc3nc(c(C)c4[nH]c(cc5nc(cc1[nH]2)C(C)=C5CC)c(C)c4C(=O)O)[C@@H](CCC(=O)O)[C@@H]3C` [Example 24], in series [1], the viability at 10 µg/mL came to 9 ± 5%. Further, in series [2], the viability at 24 h, 10 μg/mL came to 100 ± 2%.
The like results for `CCCCCCCCCCNCc1c(C)c2cc3nc(c(C)c4[nH]c(cc5nc(cc1[nH]2)C(C)=C5CC)c(C)c4C(=O)O)[C@@H](CCC(=O)O)[C@@H]3C` [Example 22] were, in that order, 10 ± 4% and 99 ± 2%.
In the same order, the values of `CCCCNCc1c(C)c2cc3nc(c(C)c4[nH]c(cc5nc(cc1[nH]2)C(C)=C5CC)c(C)c4C(=O)O)[C@@H](CCC(=O)O)[C@@H]3C` [Example 27] are 6 ± 2% and 103 ± 3%.
The like results for `CCCNCc1c(C)c2cc3nc(c(C)c4[nH]c(cc5nc(cc1[nH]2)C(C)=C5CC)c(C)c4C(=O)O)[C@@H](CCC(=O)O)[C@@H]3C` [Example 28] were, in that order, 7 ± 4% and 104 ± 1%.
As for `CCCCCCCCCNCc1c(C)c2cc3nc(c(C)c4[nH]c(cc5nc(cc1[nH]2)C(C)=C5CC)c(C)c4C(=O)O)[C@@H](CCC(=O)O)[C@@H]3C` [Example 23], in series [1], the viability at 10 µg/mL came out at 8 ± 5%. Also, the viability at 24 h, 10 μg/mL in series [2] was found to be 102 ± 2%.
The like results for `CCCCCCCNCc1c(C)c2cc3nc(c(C)c4[nH]c(cc5nc(cc1[nH]2)C(C)=C5CC)c(C)c4C(=O)O)[C@@H](CCC(=O)O)[C@@H]3C` [Example 25] were, in that order, 5 ± 3% and 100 ± 2%.
Take `CCCCCCNCc1c(C)c2cc3nc(c(C)c4[nH]c(cc5nc(cc1[nH]2)C(C)=C5CC)c(C)c4C(=O)O)[C@@H](CCC(=O)O)[C@@H]3C` [Example 16, 3-n-hexylaminomethyl-3-devinyl-chlorin e4]: in series [1], the “cell viability (%), +8 J/cm^2” value amounted to 7 ± 5% and the “cell viability (%), No light” value is 103 ± 3%.
Regarding `CCCCCCCCCCCNCc1c(C)c2cc3nc(c(C)c4[nH]c(cc5nc(cc1[nH]2)C(C)=C5CC)c(C)c4C(=O)O)[C@@H](CCC(=O)O)[C@@H]3C` [Example 21], the viability at 10 µg/mL in series [1] is 9 ± 2%. Moreover, the viability at 24 h, 10 μg/mL in series [2] is 101 ± 1%.
